In ChEMBL document CHEMBL3507680, “University of Dundee, Gates Library screen for HepG2 cell viability” one finds cytotoxicity data, which are given here for 92 molecules.

This series can be described thus: Human HepG2 cell viability assay in 384 well format. The series is classed as toxicity, cell-based. Further details: dose 125 nL, time 70.5 hour; cytotoxicity at 70.5 h: concentration not given beside the values. The following applies: HepG2 cells, read-out: Inhibition.

`CCOc1nc2cnccc2n(CC(=O)NCc2ccc(C)cc2)c1=O`: the cytotoxicity at 70.5 h was -9.89%.

On to `CN(C)c1ccc(C(CNS(=O)(=O)c2cccs2)N2CCCC2)cc1` (configuration not stated), for which the cytotoxicity at 70.5 h is -2.5%.

For `COc1ccc(C2OC(COc3ccc(C)cc3)=NN2C(C)=O)cc1` (configuration not stated), the cytotoxicity at 70.5 h came to 0.8%.

On to `COc1ccc(NC(=O)c2nc3ccccc3n(C)c2=O)c(OC)c1`, for which the cytotoxicity at 70.5 h was -0.905%.

As for `Cc1cccc(C2CCCCCN2Cc2cn(C)nc2C)c1` (configuration not stated), the cytotoxicity at 70.5 h was -9.15%.

For the molecule `Cc1ccsc1C1CCCCCN1Cc1cn(C)nc1C` (configuration not stated), the cytotoxicity at 70.5 h is -13.5%.

In the case of `COc1cccc(CN2CCCCCC2c2cccs2)c1OC` (configuration not stated), the cytotoxicity at 70.5 h was -10.1%.

Consider `CCS(=O)(=O)N1CCc2ccc(NC(=O)NC3CCCCC3)cc21`, for which the cytotoxicity at 70.5 h was -7.09%.

Take `CCS(=O)(=O)N1CCc2ccc(NC(=O)NCCc3ccccc3)cc21`: the cytotoxicity at 70.5 h is -6.1%.

For the molecule `COC(=O)c1cccc(C(=O)N2CCN(c3cc(C)ccc3C)CC2)n1`, the cytotoxicity at 70.5 h is 0.723%.

On to `COC(=O)c1cccc(C(=O)N2CCN(c3cc(Cl)ccc3C)CC2)n1`, for which the cytotoxicity at 70.5 h is -2.22%.

In the case of `CCn1nc(C)c2ccn(CC(=O)NCC3CCCO3)c(=O)c21` (configuration not stated), the cytotoxicity at 70.5 h was -5.94%.

Take `CCn1nc(C)c2ccn(CC(=O)NCCN3CCCCC3)c(=O)c21`: the cytotoxicity at 70.5 h is -5.13%.

Regarding `COCc1cnc2n1CCN(S(=O)(=O)c1c(C)nn(C)c1C)C2C` (configuration not stated), the cytotoxicity at 70.5 h was 29%.

For the molecule `CC1c2ncc(COCC3CC3)n2CCN1S(=O)(=O)N(C)C` (configuration not stated), the cytotoxicity at 70.5 h is -1.15%.

Take `O=C(C1CCCO1)N1CCc2nnc(Cn3cccc3)n2CC1` (configuration not stated): the cytotoxicity at 70.5 h is -7.61%.

`CC(C)Nc1nc2c(c(NC3CC3)n1)CCN(C1CCOCC1)CC2`: the cytotoxicity at 70.5 h was -3.76%.

Consider `COC(=O)CCC(=O)N1CCc2nc(C(=O)N3CCOCC3)sc2CC1`, for which the cytotoxicity at 70.5 h is 1.24%.

Turning to `CCO[C@@H]1CC[C@H]2[C@H]1OCCN2C(=O)c1ccc(OC)c(F)c1`, the cytotoxicity at 70.5 h is -4.73%.

With `CC(=O)N1CCOCC2(C1)CN(S(C)(=O)=O)CCO2` (configuration not stated), the cytotoxicity at 70.5 h was -9.18%.

As to `COc1cc(C(=O)N2CCO[C@H]3[C@H](OCC4CC4)CC[C@@H]32)ccc1F`, the cytotoxicity at 70.5 h was -5.96%.

For `CCn1cc2c(n1)C(COCC1CC1)CN(C(=O)c1ccco1)C2` (configuration not stated), the cytotoxicity at 70.5 h was -10.5%.

In the case of `CCOCC1CN(C(=O)c2cnoc2C)Cc2cn(CC3CC3)nc21` (configuration not stated), the cytotoxicity at 70.5 h was -8.9%.

Consider `COC(=O)CCC(=O)N1CCc2nc(C(=O)N(C)C)sc2CC1`, for which the cytotoxicity at 70.5 h was -10.1%.

Regarding `CC(C)N1CCc2ncn(C(C)C)c2C1C(=O)N1CCN(C)CC1` (configuration not stated), the cytotoxicity at 70.5 h was found to be 6.34%.

With `CCOCC1COCCC12CCN(C(=O)C1=CCCC1)CC2` (configuration not stated), the cytotoxicity at 70.5 h was -5.05%.

As to `COCC1COCCC12CCN(C(=O)CC1=CCCCC1)CC2` (configuration not stated), the cytotoxicity at 70.5 h is -2.79%.

Take `CCS(=O)(=O)N1C[C@H]2CN(c3cnn(C)c3)C(=O)[C@H]2C1`: the cytotoxicity at 70.5 h is -5.61%.

On to `CN(C)C(=O)[C@H]1C[C@@H]2CN(C(=O)NCC3CCCCC3)C[C@H]1O2`, for which the cytotoxicity at 70.5 h was -0.82%.

For `O=C(NCC1CCCCC1)N1C[C@H]2C[C@H](C(=O)N3CCCC3)[C@@H](C1)O2`, the cytotoxicity at 70.5 h is -1.84%.

On to `CC(=O)NCC(=O)N1CCc2c(CN(C)C)nn(C(C)C)c2C1`, for which the cytotoxicity at 70.5 h was -2.84%.

In the case of `N#Cc1ccc2c(c1)CN(C(=O)c1nc[nH]n1)C2c1cnco1` (configuration not stated), the cytotoxicity at 70.5 h is -2.48%.

With `CC1NC(=O)COC12CCN(C(=O)Cc1ccsc1)CC2` (configuration not stated), the cytotoxicity at 70.5 h was 4.29%.

As for `CN1C[C@H](COCC2CC2)[C@H]2CCN(Cc3ccco3)CC[C@H]2C1=O`, the cytotoxicity at 70.5 h amounted to 7.68%.

Take `Cn1cc(N2C[C@@H]3CN(S(=O)(=O)C4CC4)C[C@@H]3C2=O)cn1`: the cytotoxicity at 70.5 h stood at 2.74%.

For the molecule `Cc1ncnc2c1CCN(C(=O)Cc1cccc(F)c1)CC2`, the cytotoxicity at 70.5 h was 0.979%.

`CC(C)n1c(C(=O)N2CCCC2)nc2c1CCN(c1ncccn1)C2`: the cytotoxicity at 70.5 h amounted to 0.473%.

For `COc1ncnc2c1CCN(C(=O)NCc1cccc(F)c1)CC2`, the cytotoxicity at 70.5 h is -6.04%.

Turning to `CCOCC1COCCC12CCN(C(=O)CC1=CCCCC1)CC2` (configuration not stated), the cytotoxicity at 70.5 h was -5.12%.

In the case of `CC1N(C)C(=O)COC12CCN(C(=O)Cc1ccsc1)CC2` (configuration not stated), the cytotoxicity at 70.5 h was -5.66%.

In the case of `O=C(C1CC1)N1CCC2(CC1)CNCc1ccccc12`, the cytotoxicity at 70.5 h was 18.9%.

Take `CN1C(=O)C2(CCN(S(=O)(=O)C3CC3)CC2)c2ccccc21`: the cytotoxicity at 70.5 h was -2.07%.

With `c1cnc(N2C[C@H](OCC3CCOCC3)[C@H]3COC[C@H]32)nc1`, the cytotoxicity at 70.5 h is -1.34%.

With `COc1ccc(-c2cnc3n2CCNC32CCN(S(C)(=O)=O)CC2)cc1`, the cytotoxicity at 70.5 h is -6.19%.

`Cc1ccc(CNC(=O)c2nc3c(o2)CN(c2ncccn2)C3)o1`: the cytotoxicity at 70.5 h is -2.56%.

Turning to `CC(C)N(C)[C@@H]1CCN(Cc2ccoc2)[C@H]1Cc1ccccc1`, the cytotoxicity at 70.5 h is -1.21%.

Consider `CN1CCN(CCO)C(=O)C12CCN(c1nccs1)CC2`, for which the cytotoxicity at 70.5 h is -2.35%.

As to `CS(=O)(=O)N1CCn2c(C(=O)N3CCOCC3)cnc2C1`, the cytotoxicity at 70.5 h is -0.596%.

As for `CNC(=O)[C@@H]1CC[C@@H]2[C@@H](CCN2C(=O)N(C)C)O1`, the cytotoxicity at 70.5 h is -0.00257%.

As to `CS(=O)(=O)N1CC[C@H]2O[C@H](C(=O)NCc3cccnc3)CC[C@H]21`, the cytotoxicity at 70.5 h was determined as 0.629%.

With `CCCS(=O)(=O)N1CCC2(CC(C(=O)NCc3cccnc3)=NO2)C1` (configuration not stated), the cytotoxicity at 70.5 h is -10.3%.

For the molecule `O=C(NCCc1ccncc1)[C@H]1CC[C@@H]2[C@@H](CCN2C2CCC2)O1`, the cytotoxicity at 70.5 h was -7.73%.

With `CNC(=O)N1CC[C@@H]2CN(Cc3cccc(Cl)c3)S(=O)(=O)[C@@H]2CC1`, the cytotoxicity at 70.5 h was -4.42%.

As to `COCC(=O)N1CCC2(CC(C(=O)NCc3cccnc3)=NO2)C1` (configuration not stated), the cytotoxicity at 70.5 h was -5.23%.

For the molecule `CCCS(=O)(=O)N1CCOC2(CCCN(c3ccc(C)nn3)C2)C1` (configuration not stated), the cytotoxicity at 70.5 h was -6.62%.

Turning to `CS(=O)(=O)N1CC[C@H]2O[C@@H](C(=O)NCc3ccco3)CC[C@H]21`, the cytotoxicity at 70.5 h was -12%.

For `CN(C)C(=O)N1CCC2(CC1)NC(=O)c1ccccc12`, the cytotoxicity at 70.5 h was -2.99%.

`CS(=O)(=O)N1C[C@H](C(=O)Nc2cccnc2)C[C@H]2OCC[C@H]21`: the cytotoxicity at 70.5 h came out at 6.21%.

Consider `O=C([C@H]1COC[C@H]2CN(CC3CCCC3)C[C@H]21)N1CCOCC1`, for which the cytotoxicity at 70.5 h is 2.13%.

Turning to `CCOCC1CN(C(=O)c2cnoc2C)Cc2cn(C)nc21` (configuration not stated), the cytotoxicity at 70.5 h was -5.33%.

On to `CN(C)Cc1nn(C)c2c1CCN(C(=O)CC1CC1)C2`, for which the cytotoxicity at 70.5 h worked out at 39.3%.

With `O=S(=O)(NC1CCC12CCN(CC1CC1)CC2)c1ccccc1` (configuration not stated), the cytotoxicity at 70.5 h came to 11.7%.

`O=C(NC1CC1)N1CC[C@H]2[C@H]1CCN2c1nncs1`: the cytotoxicity at 70.5 h is 6.09%.

Consider `O=C(C1CCOCC1)N1CC[C@H]2[C@H]1CCN2c1nncs1`, for which the cytotoxicity at 70.5 h was -0.658%.

As for `CC(C)n1nc(CN(C)C)c2c1CN(C(=O)CC1CC1)CC2`, the cytotoxicity at 70.5 h was -4.55%.

For the molecule `O=S(=O)(NC1CCC12CCN(CC1CCOCC1)CC2)c1ccccc1` (configuration not stated), the cytotoxicity at 70.5 h is -2.17%.

For the molecule `CC(C)CN1CCN(C)C2(CCN(c3nccs3)CC2)C1=O`, the cytotoxicity at 70.5 h is 33.2%.

As to `O=C(NC1CC2(CCN(CCO)CC2)c2ccccc21)c1ccno1` (configuration not stated), the cytotoxicity at 70.5 h was 17.6%.

On to `CN1CC2(CCN(S(=O)(=O)C3CC3)CC2)c2ccccc21`, for which the cytotoxicity at 70.5 h stood at 11%.

As for `CCOCC1CN(C(=O)COc2ccccc2C)Cc2ncn(C)c21` (configuration not stated), the cytotoxicity at 70.5 h is -4.87%.

Turning to `CCOCC(=O)N1Cc2[nH]nc(COCC3CC3)c2C1`, the cytotoxicity at 70.5 h is 0.817%.

Take `CC(C)C(=O)N1CCCC2(CC(C(=O)NCc3cccnc3)=NO2)C1` (configuration not stated): the cytotoxicity at 70.5 h was -2.66%.

Regarding `O=C([C@@H]1CC[C@@H]2[C@@H](CCN2Cc2cccs2)O1)N1CCCCO1`, the cytotoxicity at 70.5 h is -7.83%.

In the case of `O=C(N1CCCC1)N1CCO[C@H]2[C@@H](OCc3cccnc3)CC[C@@H]21`, the cytotoxicity at 70.5 h is -8.11%.

In the case of `Cc1ccc2c(n1)N(CC1CC1)CCN(C(=O)NC1CC1)C2`, the cytotoxicity at 70.5 h is -7.71%.

Regarding `Cn1cc(C(=O)N[C@@H]2CN(Cc3ccc(F)cc3)[C@@H]3CCCO[C@@H]32)cn1`, the cytotoxicity at 70.5 h is -4.56%.

Turning to `CC(C)n1cnc2c1C(C(=O)NCCO)N(Cc1ccccc1)CC2` (configuration not stated), the cytotoxicity at 70.5 h is -8.21%.

As for `O=C(C1=CCCCC1)N1CCO[C@H]2[C@H](Oc3ccccn3)CC[C@@H]21`, the cytotoxicity at 70.5 h is -9.07%.

As for `Cn1cccc1CN1CCC2(CC1)CC(Oc1cccnc1)C2`, the cytotoxicity at 70.5 h amounted to 6.62%.

Turning to `COc1cc(N2C[C@H]3CCN(CCN4CCCC4)C[C@H]3C2)ncn1`, the cytotoxicity at 70.5 h is -1.14%.

In the case of `Cc1cccc(CN2CCC3(CC2)CC(Oc2cccnc2)C3)n1`, the cytotoxicity at 70.5 h was -0.691%.

`c1ccc(CO[C@@H]2C[C@H]3CN(c4ncccn4)CCN3C2)cc1`: the cytotoxicity at 70.5 h is 5.2%.

Turning to `Cc1cnc(N2CCN3C[C@H](OCc4ccccn4)C[C@H]3C2)nc1`, the cytotoxicity at 70.5 h was -2.63%.

Consider `CC(C)n1nc(CN(C)C)c2c1CN(CC1CC1)CC2`, for which the cytotoxicity at 70.5 h came to 2.39%.

For the molecule `COCCN1CCO[C@@H]2CN(Cc3ccc(C)o3)C[C@@H]2C1`, the cytotoxicity at 70.5 h came to 1.59%.

Consider `c1cncc(CN2CCOC(c3ncn4c(C5CC5)cccc34)C2)c1` (configuration not stated), for which the cytotoxicity at 70.5 h is -3.57%.

Consider `Cn1cncc1CNC1CC2(CCN(CC3CC3)CC2)c2ccccc21` (configuration not stated), for which the cytotoxicity at 70.5 h is -2.23%.

As for `c1cc(C2CC2)n2cnc(C3CN(Cc4ccncc4)CCO3)c2c1` (configuration not stated), the cytotoxicity at 70.5 h is -1.44%.

Regarding `CS(=O)(=O)N1CCC2(CC1)NCCn1c(-c3ccccc3)cnc12`, the cytotoxicity at 70.5 h was -7.68%.

As to `COCCN1CC[C@]2(CN(Cc3ccccn3)C[C@H]2C)C1=O`, the cytotoxicity at 70.5 h is 1.87%.

As for `c1cnc(N2CCOCC3(CCCN(CC4CCOCC4)C3)C2)nc1` (configuration not stated), the cytotoxicity at 70.5 h is -1.71%.

With `CN(C)CCn1c2c(ccc1=O)CC(NCc1cccnc1)CC2` (configuration not stated), the cytotoxicity at 70.5 h is -0.247%.
